PubChem BioAssay (NCI)
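Assay format: 96-well plates, 48-hour exposure. Abbreviation: GI50, concentration required for 50% inhibition of growth. TGI denotes the concentration required for complete inhibition of growth.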

Key:
Experiment in all cases: growth of human tumour cells (NCI), 48 h; in the data active = GI50 below about 0.43 µM; inactive = the rest
786-0 renal = system: 786-0 renal
SF-268 CNS = system: SF-268 CNS
MCF7 breast = system: MCF7 breast
K-562 leukemia = system: K-562 leukemia
T-47D breast = system: T-47D breast
EKVX NSCLC = system: EKVX NSCLC
HL-60(TB) leukemia = system: HL-60(TB) leukemia
SNB-19 CNS = system: SNB-19 CNS
DU-145 prostate = system: DU-145 prostate
TK-10 renal = system: TK-10 renal
MDA-MB-231 breast = system: MDA-MB-231 breast
COLO 205 colon = system: COLO 205 colon
SR leukemia = system: SR leukemia
HCT-116 colon = system: HCT-116 colon
OVCAR-5 ovarian = system: OVCAR-5 ovarian
U251 CNS = system: U251 CNS
RXF 393 renal = system: RXF 393 renal
HOP-62 NSCLC = system: HOP-62 NSCLC
NCI-H460 lung = system: NCI-H460 lung
HCC-2998 colon = system: HCC-2998 colon
KM12 colon = system: KM12 colon
NCI-H226 lung = system: NCI-H226 lung
RPMI-8226 leukemia = system: RPMI-8226 leukemia
SNB-75 CNS = system: SNB-75 CNS
SK-OV-3 ovarian = system: SK-OV-3 ovarian
CAKI-1 renal = system: CAKI-1 renal
M14 melanoma = system: M14 melanoma
SK-MEL-2 melanoma = system: SK-MEL-2 melanoma
SF-295 CNS = system: SF-295 CNS
UACC-62 melanoma = system: UACC-62 melanoma
OVCAR-4 ovarian = system: OVCAR-4 ovarian
UO-31 renal = system: UO-31 renal
SF-539 CNS = system: SF-539 CNS
A549 NSCLC = system: A549 NSCLC
ACHN renal = system: ACHN renal
OVCAR-8 ovarian = system: OVCAR-8 ovarian
NCI-H522 lung = system: NCI-H522 lung
SW-620 colon = system: SW-620 colon
UACC-257 melanoma = system: UACC-257 melanoma
NCI-H23 lung = system: NCI-H23 lung
OVCAR-3 ovarian = system: OVCAR-3 ovarian
LOX IMVI melanoma = system: LOX IMVI melanoma
SK-MEL-28 melanoma = system: SK-MEL-28 melanoma
HT29 colon = system: HT29 colon
HCT-15 colon = system: HCT-15 colon
CCRF-CEM leukemia = system: CCRF-CEM leukemia
BT-549 breast = system: BT-549 breast
IGROV1 ovarian = system: IGROV1 ovarian
A498 renal = system: A498 renal
HS 578T breast = system: HS 578T breast
MOLT-4 leukemia = system: MOLT-4 leukemia
MDA-MB-435 = system: MDA-MB-435
NCI/ADR-RES ovarian = system: NCI/ADR-RES ovarian
MALME-3M melanoma = system: MALME-3M melanoma
SK-MEL-5 melanoma = system: SK-MEL-5 melanoma

C[C@]12CC[C@H]3[C@@H](C[C@@H]4N=C(c5ccc(O)cc5)S[C@@]45C[C@H](O)CC[C@]35C)[C@@H]1CC[C@@H]2O
33.8 µM: TGI (SR leukemia)
2.5 µM: TGI (RPMI-8226 leukemia)
25.7 µM: TGI (SNB-75 CNS)
> 100 µM: TGI (SF-268 CNS) | TGI (K-562 leukemia) | TGI (T-47D breast) | TGI (EKVX NSCLC) | TGI (HL-60(TB) leukemia) | TGI (SNB-19 CNS) | TGI (DU-145 prostate) | TGI (TK-10 renal) | TGI (COLO 205 colon) | TGI (OVCAR-5 ovarian) | TGI (NCI-H460 lung) | TGI (HCC-2998 colon) | TGI (KM12 colon) | TGI (NCI-H226 lung) | TGI (SK-OV-3 ovarian) | TGI (CAKI-1 renal) | TGI (OVCAR-4 ovarian) | TGI (A549 NSCLC) | TGI (ACHN renal) | TGI (OVCAR-8 ovarian) | TGI (NCI-H522 lung) | TGI (SW-620 colon) | TGI (UACC-257 melanoma) | TGI (NCI-H23 lung) | TGI (IGROV1 ovarian) | TGI (MOLT-4 leukemia) | TGI (MDA-MB-435) | TGI (NCI/ADR-RES ovarian) | TGI (MALME-3M melanoma)
14.6 µM: TGI (LOX IMVI melanoma)
7.64 µM: TGI (UACC-62 melanoma)
66 µM: TGI (SK-MEL-28 melanoma)
3.23 µM: TGI (SF-539 CNS)
50.5 µM: TGI (HOP-62 NSCLC)
83.7 µM: TGI (OVCAR-3 ovarian)
active: GI50 (786-0 renal) 0.423 µM | GI50 (RXF 393 renal) 0.377 µM | GI50 (RPMI-8226 leukemia) 0.378 µM | GI50 (SF-295 CNS) 0.413 µM
20.7 µM: TGI (HCT-15 colon)
60.1 µM: TGI (HS 578T breast)
21.3 µM: TGI (A498 renal)
32.8 µM: TGI (MDA-MB-231 breast)
67.3 µM: TGI (U251 CNS)
13.1 µM: TGI (SK-MEL-5 melanoma)
inactive: GI50 (SF-268 CNS) 5.32 µM | GI50 (MCF7 breast) 3.34 µM | GI50 (K-562 leukemia) 3.48 µM | GI50 (T-47D breast) 10.3 µM | GI50 (EKVX NSCLC) 7.29 µM | GI50 (HL-60(TB) leukemia) 4.09 µM | GI50 (SNB-19 CNS) 7.95 µM | GI50 (DU-145 prostate) 9.54 µM | GI50 (TK-10 renal) > 100 µM | GI50 (MDA-MB-231 breast) 6.98 µM | GI50 (COLO 205 colon) 9.14 µM | GI50 (SR leukemia) 1.37 µM | GI50 (HCT-116 colon) 2.37 µM | GI50 (OVCAR-5 ovarian) 13.3 µM | GI50 (U251 CNS) 2.23 µM | GI50 (HOP-62 NSCLC) 5.26 µM | GI50 (NCI-H460 lung) 4.94 µM | GI50 (HCC-2998 colon) 31.9 µM | GI50 (KM12 colon) 7.24 µM | GI50 (NCI-H226 lung) 27.4 µM | GI50 (SNB-75 CNS) 1.84 µM | GI50 (SK-OV-3 ovarian) 19 µM | GI50 (CAKI-1 renal) 4.12 µM | GI50 (M14 melanoma) 2.86 µM | GI50 (SK-MEL-2 melanoma) 4.42 µM | GI50 (UACC-62 melanoma) 2.43 µM | GI50 (OVCAR-4 ovarian) 7.24 µM | GI50 (UO-31 renal) 2.48 µM | GI50 (SF-539 CNS) 0.454 µM | GI50 (A549 NSCLC) 5.95 µM | GI50 (ACHN renal) 7.55 µM | GI50 (OVCAR-8 ovarian) 40.9 µM | GI50 (NCI-H522 lung) 22.6 µM | GI50 (SW-620 colon) 8.4 µM | GI50 (UACC-257 melanoma) 19.1 µM | GI50 (NCI-H23 lung) 14 µM | GI50 (OVCAR-3 ovarian) 8.67 µM | GI50 (LOX IMVI melanoma) 2.67 µM | GI50 (SK-MEL-28 melanoma) 3.05 µM | GI50 (HT29 colon) 3.13 µM | GI50 (HCT-15 colon) 2.43 µM | GI50 (CCRF-CEM leukemia) 2.05 µM | GI50 (BT-549 breast) 1.14 µM | GI50 (IGROV1 ovarian) 11.1 µM | GI50 (A498 renal) 3.51 µM | GI50 (HS 578T breast) 1.59 µM | GI50 (MOLT-4 leukemia) 1.93 µM | GI50 (MDA-MB-435) 16.4 µM | GI50 (NCI/ADR-RES ovarian) 6.77 µM | GI50 (MALME-3M melanoma) 3.76 µM | GI50 (SK-MEL-5 melanoma) 3.15 µM
47.2 µM: TGI (CCRF-CEM leukemia)
21.5 µM: TGI (MCF7 breast)
1.31 µM: TGI (RXF 393 renal)
69.4 µM: TGI (SK-MEL-2 melanoma)
20.4 µM: TGI (UO-31 renal) | TGI (HT29 colon)
27.4 µM: TGI (HCT-116 colon)
29.3 µM: TGI (M14 melanoma)
19.4 µM: TGI (BT-549 breast)
2.39 µM: TGI (786-0 renal)
2.03 µM: TGI (SF-295 CNS)
